Tests used:
HEp-2 = assay: MTT cytotoxicity, 72 h; format: cell-based, human
Procedure: (§1) The cytotoxicity assessment was performed against three human cancer cell lines in suspension (K562, HL-60 and MOLT-4) and four adhered (HEp-2, NCI-H292, HT-29 and MCF-7).
(§2) The cells were obtained from the Cell Bank of Rio de Janeiro and maintained in the Laboratory of Cell Culture of the Department of Antibiotics of the Federal University of Pernambuco. The lines K562 (myeloblastic leukaemia), HL-60 (promyelocytic leukemia) and MOLT-4 (lymphoblastic leukemia) were cultured in RPMI 1640 medium and the lines HEp-2 (larynx carcinoma), NCI-H292 (lung carcinoma), HT-29 (colon adenocarcinoma) and MCF-7 (breast adenocarcinoma) were cultured in DMEM medium, supplemented with 10% fetal bovine serum, 2 mM glutamine, 100 U/mL penicillin and 100 μg/mL streptomycin (Gibco™ Life Technologies), at 37 °C and 5% CO2.
(§3) The evaluation of the cytotoxicity of the compounds was performed by the method of 3-(4,5-dimethyl-2-thiazolyl)-2,5-diphenyl-2H-tetrazolium bromide (MTT) (Sigma Aldrich Co., St. Louis, MO, USA). To perform the assay the cells were seeded in 96-well plates at the following concentrations: HL-60 and K562 (0.3 × 10^6 cells/mL); MOLT-4 and PBMC (10^6 cells/mL); NCI-H292, HT-29, HEp-2 e MCF-7 (10^5 cells/mL). Briefly, the compounds previously dissolved in DMSO (dimethylsulfoxide, Vetec, São Paulo, Brazil), were diluted in medium and added to each well at the desired concentrations. For the calculation of the concentration that inhibits 50% of cell growth (IC50) the compounds were serially diluted to obtain the final concentrations between 0.19–25 μg/mL. Doxorubicin was used as the standard in the concentration range between (0.078–10 μg/mL). After 72 h of contact of the cells with the compounds, it was added to each well 25 μL of MTT solution (5 mg/mL). Plates were left for another 3 h in incubator at 37 °C and at the end of that period the supernatant was aspirated. To perform the reading, 100 μL of DMSO was added in each well for the dissolution of the formazan crystals. The amount of formazan was measured by reading the plate at 560 nm absorbance. The IC50 was calculated from the nonlinear regression in the Prisma 7.0 software (GraphPad, San Diego, CA, USA). Each sample was tested in triplicate in three independent experiments.

HT-29 = assay: MTT cytotoxicity, 72 h; format: cell-based, human
Procedure: as §1, §2, §3

HL-60 = assay: MTT cytotoxicity, 72 h; format: cell-based, human; conditions: MTT, 72 h of incubation
Procedure: as §1, §2, §3

K562 = assay: MTT cytotoxicity, 72 h; format: cell-based, human
Procedure: as §1, §2, §3

NCI-H292 = assay: MTT cytotoxicity, 72 h; format: cell-based, human
Procedure: as §1, §2, §3

MCF-7 = assay: MTT cytotoxicity, 72 h; format: cell-based, human
Procedure: as §1, §2, §3

MOLT-4 = assay: MTT cytotoxicity, 72 h; format: cell-based, human
Procedure: as §1, §2, §3

[1] = tested on: Peripheral Blood Mononuclear Cells (PBMCs); assay: MTT cytotoxicity in normal cells, 72 h; format: cell-based, human; conditions: 72 h of incubation
Procedure: In order to evaluate the cytotoxic potential in normal cells, all the derivatives were tested against Peripheral Blood Mononuclear Cells (PBMCs) and the most promising compounds were again compounds 3c and 4a, which offered more selectivity against the cancer cells.
Mononuclear cells were obtained from the peripheral blood of healthy volunteers by heparin tube collection and isolated by Ficoll-Histopaque gradient centrifugation. After centrifugation, the cells were harvested, washed and resuspended in RPMI 1640 medium supplemented with 20% fetal bovine serum, 2 mM glutamine, 100 U/mL penicillin and 100 μg/mL streptomycin (Gibco™ Life Technologies, Waltham, MA, USA). The phytohemagglutinin mitogen 2% was also added into the culture medium. After that, using the neubauer chamber, the cells were counted and plated in a 96-well plate at a concentration of 10^6 cells/mL and then were maintained for overnight under incubation at 37 °C and 5% CO2 [65].
as §3

CK1δ/ε = assay: Kinase inhibition assay (ADP-Glo); format: biochemical, Sus scrofa domesticus; conditions: 10 µM ATP
Procedure: SscCK1δ/ε (Sus scrofa domesticus, casein kinase 1δ/ε, affinity purified from porcine brain) was assayed in buffer A, with 0.022 μg/μL of the following peptide: RRKHAAIGSpAYSITA (“Sp” stands for phosphorylated serine) as CK1-specific substrate.

DYRK1A = molecular target: T1, DYRK1A (Rattus norvegicus, UniProt Q63470); assay: Kinase inhibition assay (ADP-Glo); format: biochemical; conditions: 10 µM ATP
T1 construct: amino acids 1 to 499 including the kinase domain; made in house; host or cells: bacteria
Procedure: RnDYRK1A (Rattus norvegicus, amino acids 1 to 499 including the kinase domain, recombinant, expressed in bacteria, DNA vector kindly provided by Dr. W. Becker, Aachen, Germany) was assayed in buffer A with 0.033 μg/µL of the following peptide: KKISGRLSPIMTEQ as substrate.

CDK9/CyclinT = CDK9/CyclinT (Homo sapiens, UniProt P50750); assay: Kinase inhibition assay (ADP-Glo)
Procedure: The protein kinases studied were: CDK2/CyclinA, CDK5/p25, CDK9/CyclinT (cyclin-dependent kinases), HASPIN (haploid germ cell-specific nuclear protein kinase), PIM1 (PIM family kinase 1), CLK1 (cdc2-like kinase 1), DYRK1A (dual-specificity tyrosine phosphorylation regulated kinase), CK1δ/ε (casein kinase 1 isoforms), GSK3α/β (glycogen synthase kinase 3) and AURKB (aurora kinase B). Initially, all compounds were first tested at 10 μM. […] Compounds displaying more than 50% inhibition at 10 μM were next tested over a wide range of concentrations (usually 0.01–10 μM), and IC50 values were determined from the dose-response curves (Sigma-Plot).
Kinase activities were assayed in appropriate kinase buffer, with either protein or peptide as substrate in the presence of 10 µM ATP in a final volume of 6 µL using the ADP-Glo^TM assay kit (Promega, Madison, WI, USA, as described in Zegzouti et al. [66]). Controls were performed with appropriate dilutions of dimethylsulfoxide (solvent of the tested compounds).
The buffers used for kinase assays are the following: (A) 10 mM MgCl2, 1 mM EGTA, 1 mM DTT, 25 mM Tris-HCl pH 7.5, 50 µg/mL heparin; (B) 25 mM MOPS, pH 7.2, 12.5 mM -glycerolphosphate, 25 mM MgCl2, 5 mM EGTA, 2 mM EDTA, 0.25 mM DTT.

GSK3 α/β = assay: Kinase inhibition assay (ADP-Glo); format: biochemical, Sus scrofa domesticus; conditions: 10 µM ATP
Procedure: SscGSK-3α/β (Sus scrofa domesticus, glycogen synthase kinase-3, affinity purified from porcine brain) was assayed in buffer A with 0.010 µg/µL of GS-1 peptide, a GSK-3-selective substrate ([…]pEDEEE, “Sp” stands for phosphorylated serine).

CLK1 = molecular target: T2, CLK1 (Mus musculus, UniProt P22518); assay: Kinase inhibition assay (ADP-Glo); format: biochemical; conditions: 10 µM ATP
T2 construct: made in house; host or cells: bacteria
Procedure: MmCLK1 (from Mus musculus, recombinant, expressed in bacteria) was assayed in buffer A with 0.027μg/µL of the following peptide: GRSRSRSRSRSR as substrate.

CDK2/CyclinA = CDK2/CyclinA (Homo sapiens, UniProt P24941); assay: Kinase inhibition assay (ADP-Glo); format: biochemical; conditions: 10 µM ATP
Procedure: HsCDK2/CyclinA (human, cyclin-dependent kinase-2, kindly provided by Dr. A. Echalier-Glazer, Leicester, UK) was assayed in buffer A with 0.8 µg/µL of histone H1 as substrate.

HASPIN = molecular target: T3, HASPIN (Homo sapiens, UniProt Q8TF76); assay: Kinase inhibition assay (ADP-Glo); format: biochemical; conditions: 10 µM ATP
T3 construct: kinase domain, amino acids 470 to 798; made in house; host or cells: bacteria
T3 sequence (Q8TF76 470-798): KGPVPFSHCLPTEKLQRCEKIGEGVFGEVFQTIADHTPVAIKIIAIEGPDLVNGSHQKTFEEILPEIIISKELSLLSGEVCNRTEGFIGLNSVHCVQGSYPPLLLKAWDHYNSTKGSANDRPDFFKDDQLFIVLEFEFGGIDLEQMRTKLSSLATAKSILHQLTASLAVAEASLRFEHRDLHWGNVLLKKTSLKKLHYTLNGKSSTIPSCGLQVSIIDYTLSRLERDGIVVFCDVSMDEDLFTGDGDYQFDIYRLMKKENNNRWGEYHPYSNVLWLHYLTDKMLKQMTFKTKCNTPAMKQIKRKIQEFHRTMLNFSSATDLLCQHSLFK
Procedure: HsHASPIN (human, kinase domain, amino acids 470 to 798, recombinant, expressed in bacteria) was assayed in buffer A with 0.007 µg/µL of Histone H3 (1-21) peptide ([…]) as substrate;

AURKB = molecular target: T4, AURKB (Homo sapiens, UniProt Q96GD4); assay: Kinase inhibition assay (ADP-Glo); format: biochemical; conditions: 10 µM ATP
T4 construct: purchased SignalChem A31-10G; host or cells: Sf9 insect cells (baculovirus)

CDK5/p25 = molecular target: T5, CDK5/p25 (Homo sapiens, UniProt Q00535); assay: Kinase inhibition assay (ADP-Glo); format: biochemical; conditions: 10 µM ATP
T5 construct: made in house; host or cells: bacteria
Procedure: HsCDK5/p25 (human, recombinant, expressed in bacteria) was assayed in buffer A, with 0.8 µg/µL of histone H1 as substrate.

PIM1 = molecular target: T6, PIM1 (Homo sapiens, UniProt P11309); assay: Kinase inhibition assay (ADP-Glo); format: biochemical; conditions: 10 µM ATP
T6 construct: made in house; host or cells: bacteria
Procedure: HsPIM1 (human proto-oncogene, recombinant, expressed in bacteria) was assayed in buffer B with 0.8 µg/µL of histone H1 (Sigma #H5505) as substrate.

[2] = Homo sapiens, HEp-2, 72 h of incubation
[3] = Homo sapiens, HT-29, 72 h of incubation
[4] = Homo sapiens, K562, 72 h of incubation
[5] = Homo sapiens, NCI-H292, 72 h of incubation
[6] = Homo sapiens, MCF7, 72 h of incubation
[7] = Homo sapiens, MOLT-4, 72 h of incubation

T2 sequence (P22518 whole entry): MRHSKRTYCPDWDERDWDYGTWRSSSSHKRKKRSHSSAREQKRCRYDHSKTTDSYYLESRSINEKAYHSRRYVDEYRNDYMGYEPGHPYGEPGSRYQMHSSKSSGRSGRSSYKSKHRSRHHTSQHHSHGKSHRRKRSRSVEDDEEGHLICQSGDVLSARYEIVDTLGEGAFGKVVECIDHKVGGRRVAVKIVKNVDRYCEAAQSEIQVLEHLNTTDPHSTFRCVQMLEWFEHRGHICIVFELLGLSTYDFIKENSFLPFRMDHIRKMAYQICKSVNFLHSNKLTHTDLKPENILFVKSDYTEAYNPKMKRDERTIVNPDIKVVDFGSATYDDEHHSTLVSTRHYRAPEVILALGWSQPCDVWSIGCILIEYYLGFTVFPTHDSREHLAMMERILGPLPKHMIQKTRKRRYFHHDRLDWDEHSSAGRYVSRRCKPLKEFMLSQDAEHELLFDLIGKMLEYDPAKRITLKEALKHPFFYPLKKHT
T4 sequence (Q96GD4 whole entry): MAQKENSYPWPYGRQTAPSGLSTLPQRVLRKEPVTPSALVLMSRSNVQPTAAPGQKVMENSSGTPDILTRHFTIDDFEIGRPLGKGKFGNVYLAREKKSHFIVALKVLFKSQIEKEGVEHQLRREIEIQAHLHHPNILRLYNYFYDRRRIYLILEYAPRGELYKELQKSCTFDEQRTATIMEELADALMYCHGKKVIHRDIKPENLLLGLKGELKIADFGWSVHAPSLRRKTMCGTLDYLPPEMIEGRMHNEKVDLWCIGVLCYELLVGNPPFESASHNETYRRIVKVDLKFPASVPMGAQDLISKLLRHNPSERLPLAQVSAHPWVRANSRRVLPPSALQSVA
T5 sequence (Q00535 whole entry): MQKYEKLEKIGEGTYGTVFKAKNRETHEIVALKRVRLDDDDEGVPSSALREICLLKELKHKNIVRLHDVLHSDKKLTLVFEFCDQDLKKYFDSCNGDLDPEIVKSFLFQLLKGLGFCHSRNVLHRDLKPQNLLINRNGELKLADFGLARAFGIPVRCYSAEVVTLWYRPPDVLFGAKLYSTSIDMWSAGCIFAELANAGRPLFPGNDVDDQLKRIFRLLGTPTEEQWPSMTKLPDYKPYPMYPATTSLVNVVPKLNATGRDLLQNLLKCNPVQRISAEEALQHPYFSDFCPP
T5 sequence (Q15078 99-307 partner limits assumed): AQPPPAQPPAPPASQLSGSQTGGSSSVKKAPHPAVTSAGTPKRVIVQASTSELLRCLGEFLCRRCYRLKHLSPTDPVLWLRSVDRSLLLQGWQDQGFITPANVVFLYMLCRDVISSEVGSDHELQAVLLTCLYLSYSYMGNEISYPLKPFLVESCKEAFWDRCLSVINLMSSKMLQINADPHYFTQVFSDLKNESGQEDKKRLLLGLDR
Chain of CDK9/CyclinT (P50750 whole entry): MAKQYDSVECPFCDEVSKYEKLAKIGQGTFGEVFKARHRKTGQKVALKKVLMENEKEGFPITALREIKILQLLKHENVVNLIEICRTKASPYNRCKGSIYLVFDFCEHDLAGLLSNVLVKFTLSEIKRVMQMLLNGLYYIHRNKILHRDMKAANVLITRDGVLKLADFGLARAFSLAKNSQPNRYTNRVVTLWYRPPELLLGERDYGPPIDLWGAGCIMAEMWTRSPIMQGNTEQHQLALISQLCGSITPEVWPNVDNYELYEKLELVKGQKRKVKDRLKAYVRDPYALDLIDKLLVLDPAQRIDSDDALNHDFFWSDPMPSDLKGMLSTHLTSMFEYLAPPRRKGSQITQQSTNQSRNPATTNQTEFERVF
Chain of CDK9/CyclinT (O60563 whole entry partner): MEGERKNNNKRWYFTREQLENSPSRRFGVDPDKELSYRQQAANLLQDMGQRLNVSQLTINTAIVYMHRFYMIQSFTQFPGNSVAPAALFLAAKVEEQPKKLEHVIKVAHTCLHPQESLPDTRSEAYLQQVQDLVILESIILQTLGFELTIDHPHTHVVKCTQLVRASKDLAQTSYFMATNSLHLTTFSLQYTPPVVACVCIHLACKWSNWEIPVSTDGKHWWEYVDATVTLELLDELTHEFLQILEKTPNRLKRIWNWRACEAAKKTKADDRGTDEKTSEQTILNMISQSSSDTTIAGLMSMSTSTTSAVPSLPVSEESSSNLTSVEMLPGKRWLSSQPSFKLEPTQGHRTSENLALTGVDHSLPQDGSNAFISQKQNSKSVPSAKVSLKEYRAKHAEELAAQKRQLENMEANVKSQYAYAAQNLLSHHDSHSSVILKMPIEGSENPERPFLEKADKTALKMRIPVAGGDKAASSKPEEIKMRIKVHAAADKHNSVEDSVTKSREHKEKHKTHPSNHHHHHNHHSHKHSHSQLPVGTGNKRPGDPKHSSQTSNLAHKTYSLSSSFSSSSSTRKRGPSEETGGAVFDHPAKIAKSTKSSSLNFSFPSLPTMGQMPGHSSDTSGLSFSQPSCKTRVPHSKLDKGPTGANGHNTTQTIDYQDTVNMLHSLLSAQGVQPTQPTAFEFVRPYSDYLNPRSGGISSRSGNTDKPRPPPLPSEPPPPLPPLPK
T6 sequence (P11309 whole entry): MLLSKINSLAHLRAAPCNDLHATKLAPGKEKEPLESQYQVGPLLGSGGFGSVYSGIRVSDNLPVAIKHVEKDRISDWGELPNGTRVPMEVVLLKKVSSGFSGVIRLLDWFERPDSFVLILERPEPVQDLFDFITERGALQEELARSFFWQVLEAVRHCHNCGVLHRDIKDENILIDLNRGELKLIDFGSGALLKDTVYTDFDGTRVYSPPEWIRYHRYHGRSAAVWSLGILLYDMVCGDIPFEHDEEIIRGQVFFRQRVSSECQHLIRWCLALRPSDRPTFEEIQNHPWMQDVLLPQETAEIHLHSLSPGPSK

| Molecule | melting point [°C] | IC50 (HEp-2; [2]) [µM] | IC50 (HT-29; [3]) [µM] | IC50 (HL-60; Homo sapiens, HL-60) [µM] | IC50 (K562; [4]) [µM] | IC50 (NCI-H292; [5]) [µM] | IC50 (MCF-7; [6]) [µM] | IC50 (MOLT-4; [7]) [µM] | IC50 ([1]; Homo sapiens, PBMC) [µM] | IC50 (CK1δ/ε) [µM] | IC50 (DYRK1A) [µM] | IC50 (CDK9/CyclinT) [µM] | IC50 (GSK3 α/β) [µM] | IC50 (CLK1) [µM] | IC50 (CDK2/CyclinA) [µM] | IC50 (HASPIN) [µM] | IC50 (AURKB) [µM] | IC50 (CDK5/p25) [µM] | IC50 (PIM1) [µM] | other results |
| --- | --- | --- | --- | --- | --- | --- | --- | --- | --- | --- | --- | --- | --- | --- | --- | --- | --- | --- | --- | --- |
| 2,6-Pyridinedicarboxaldehyde Semicarbazone [Compound 3j] | – | – | – | – | – | – | – | – | – | – | – | – | – | – | – | – | – | – | – | IC50 (HEp-2; 72 h of incubation): > 100 µM; IC50 (HT-29; 72 h of incubation): > 100 µM; IC50 (HL-60): > 100 µM; IC50 (K562; 72 h of incubation): > 100 µM; IC50 (NCI-H292; 72 h of incubation): > 100 µM; IC50 (MCF-7; 72 h of incubation): > 100 µM; IC50 (MOLT-4; 72 h of incubation): > 100 µM; IC50 [1]: > 100 µM |
| COc1ccc(C=NNC(N)=O)cc1 [Compound 3a, 4-Methoxybenzaldehyde Semicarbazone] | 210 to 212 | > 100 | > 100 | > 100 | > 100 | > 100 | > 100 | > 100 | > 100 | – | – | – | – | – | – | – | – | – | – | – |
| COc1cc(C=NNC(N)=O)ccc1O [Compound 3b, 4-Hydroxy-3-methoxybenzaldehyde Semicarbazone] | 237 to 239 | > 100 | > 100 | > 100 | > 100 | > 100 | > 100 | > 100 | > 100 | – | – | – | – | – | – | – | – | – | – | – |
| NC(=O)NN=Cc1ccc(Br)cc1 [Compound 3d, 4-Bromobenzaldehyde Semicarbazone] | 237 to 239 | 23.1 ± 0.8 | > 100 | 16.9 ± 1.1 | 25.2 ± 2.43 | > 100 | 33.5 ± 0.75 | 37.2 ± 0.84 | 46.3 ± 0.97 | > 10 | > 10 | > 10 | > 10 | > 10 | > 10 | > 10 | > 10 | > 10 | > 10 | – |
| NC(=O)NN=Cc1ccc(Cl)cc1 [Compound 3e, 4-Chlorobenzaldehyde Semicarbazone] | 235 to 236 | 22.3 ± 0.4 | > 100 | > 100 | 58.7 ± 0.97 | > 100 | 33.9 ± 0.8 | > 100 | > 100 | > 10 | > 10 | > 10 | > 10 | > 10 | > 10 | > 10 | > 10 | > 10 | > 10 | – |
| NC(=O)NN=Cc1ccc(Cl)c(Cl)c1 [Compound 3f, 3,4-Dichlorobenzaldehyde Semicarbazone] | 246 to 247 | 8.61 ± 0.35 | > 100 | 14.2 ± 1.41 | 26.3 ± 1.86 | > 100 | 23.3 ± 1.55 | > 100 | > 100 | > 10 | > 10 | > 10 | > 10 | > 10 | > 10 | > 10 | > 10 | > 10 | > 10 | – |
| CC(C)(C)c1ccc(C=NNC(N)=O)cc1 [Compound 3h, 4-Tert-Butylbenzaldehyde Semicarbazone] | 216 to 218 | 42.9 ± 0.75 | 47 ± 0.75 | > 100 | > 100 | 48.8 ± 0.97 | 58.4 ± 1.86 | 25.5 ± 1.9 | 49.7 ± 1.06 | > 10 | > 10 | > 10 | > 10 | 1.9 | > 10 | > 10 | > 10 | > 10 | > 10 | – |
| NC(=O)NN=Cc1ccncc1 [Compound 3i, 4-Pyridinecarboxaldehyde Semicarbazone] | 225 to 226 | > 100 | > 100 | > 100 | > 100 | > 100 | > 100 | > 100 | > 100 | – | – | – | – | – | – | – | – | – | – | – |
| NC(=O)NN=Cc1cccs1 [Compound 3k, 2-Thiophenecarboxaldehyde Semicarbazone] | 227 to 230 | > 100 | > 100 | > 100 | > 100 | > 100 | > 100 | > 100 | > 100 | – | – | – | – | – | – | – | – | – | – | – |
| NC(=O)N/N=C/c1ccc([N+](=O)[O-])o1 [Compound 3m, 5-Nitro-2-furfuraldehyde Semicarbazone] | – | – | 28.4 ± 8.56 | 24.33 ± 0.16 | – | 31.9 ± 0.07 | 8.56 ± 0.01 | – | > 100 | – | – | > 10 | > 10 | – | – | > 10 | – | > 10 | > 10 | – |

— PMC6958387, “Biological Evaluation of Arylsemicarbazone Derivatives as Potential Anticancer Agents” (Pharmaceuticals, 2019)
